Measurements: paper PMC8919507, “Dual Reversible Coumarin Inhibitors Mutually Bound to Monoamine Oxidase B and Acetylcholinesterase Crystal Structures” (ACS Medicinal Chemistry Letters, 2022)

Molecular target: T1, mouse AChE (Mus musculus, UniProt P21836)
T1 sequence (P21836 32-614): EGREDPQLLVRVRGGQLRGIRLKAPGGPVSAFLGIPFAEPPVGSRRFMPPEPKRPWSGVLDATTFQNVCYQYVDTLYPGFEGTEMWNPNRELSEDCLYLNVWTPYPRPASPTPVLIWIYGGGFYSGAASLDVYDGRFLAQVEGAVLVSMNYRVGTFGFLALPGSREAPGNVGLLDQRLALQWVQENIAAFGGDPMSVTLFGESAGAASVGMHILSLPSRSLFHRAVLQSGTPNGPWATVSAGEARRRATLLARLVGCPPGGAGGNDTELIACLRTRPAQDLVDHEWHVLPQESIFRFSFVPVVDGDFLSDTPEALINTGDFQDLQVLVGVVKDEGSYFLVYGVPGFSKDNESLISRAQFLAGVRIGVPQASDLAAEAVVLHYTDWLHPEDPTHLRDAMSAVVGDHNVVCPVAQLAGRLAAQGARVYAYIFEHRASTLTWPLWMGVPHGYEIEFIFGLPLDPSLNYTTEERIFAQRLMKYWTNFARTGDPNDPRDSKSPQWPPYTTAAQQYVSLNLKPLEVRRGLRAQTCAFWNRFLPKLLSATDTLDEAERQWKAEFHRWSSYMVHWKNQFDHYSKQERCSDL
Assay: AChE inhibition, spectrophotometric Ellman's method on purified recombinant enzyme
Conditions: 1 mM acetylthiocholine iodide, pH 7.4
Protocol: Mouse AChE was expressed in HEK293 F cells and purified as previously reported.3 The activity
of AChE was measured using the Ellman assay adaped to a 96-well plate format.4 The
acetylthiocholine iodide was 1 mM. The measurements were performed in 0.1 M phosphate
Determination of IC50 values for the compounds
inhibition of AChE was performed as previously reported.6 At least 5 replicate IC50 determinations at 8
inhibitor concentrations were performed for each compound. The obtained dose-response curve was
fitted using the response variable slope versus log(inhibitor concentration) equation (four parameters) in
GraphPad Prism software 5.0.

| SMILES | IC50 [nM] |
| --- | --- |
| Cc1c(C)c2ccc(OCC3CCCN(Cc4ccccc4)C3)cc2oc1=O (single isomer, unassigned; (-)) [(−)-2, 7-[(1-benzylpiperidin-3-yl)methoxy]-3,4-dimethyl-2H-chromen-2-one] | 700 ± 50 |
| Cc1c(C)c2ccc(OCC3CCCN(Cc4ccccc4)C3)cc2oc1=O (single isomer, unassigned; (+)) [(+)-2, 7-[(1-benzylpiperidin-3-yl)methoxy]-3,4-dimethyl-2H-chromen-2-one] | 1500 ± 100 |
